Assay results as given in patent US20100029615A1, “BENZIMIDAZOLE DERIVATIVES” (priority 2006, published 2010).
Where a name gives a salt, the structure may show the parent alone.

target: T1, SMO (Mus musculus, UniProt P56726); test: Smoothened (SMO)/Sonic Hedgehog (SHh) Transient Transcriptional Activation Assay (Gli-luciferase reporter in C3H10T1/2 cells); type: cell-based, murine; conditions: 2 uM test compound, SHh 250 ng/ml, 20 hrs
T1 construct: endogenous in cells; host or cells: C3H10T1/2 (ATCC #CCL-226)
Procedure: As noted above, the compounds of the invention are useful as inhibitors of SMO. Methods for determining the in vitro activity of these compounds are described below: Smoothened (SMO)/Sonic Hedgehog (SHh) Transient Transcriptional Activation Assay
On Day 1,2×10^6 C3H10T1/2 cells (ATCC #CCL-226) were split and seeded in 12 mls of growth medium Basal Medium Eagle (BME, Invitrogen #21010-046) supplemented with 2 mM L-glutamine (Invitrogen #25030-081), 0.1 units/ml penicillin and 0.1 ug/ml streptomycin (Invitrogen #15140-122), and 10% Fetal Bovine Serum (FBS, Invitrogen #16140-071) in a T-75 flask (Costar #3376). They were allowed to attach for 4 hours at 37° C., 5% CO2. The cells were then transfected using Fugene 6 (Roch #11 814 443 001) in the following reaction: 48 ul Fugene 6 and 745 ul Opti-MEM (Invitrogen #31985-070) were mixed and allowed to sit at room temperature for 5 minutes. 8 ug of pGL4.14/mGli(CS) DNA (10× murine Gli response elements and minimal CS promoter) and 0.5 ug of pEGFP DNA (Clontech) were added, gently mixed and incubated at room temperature for 20 minutes. This entire transfection mix was then added to the T-75 flask containing the cells. The cells were incubated at 37 °C, 5% C02 for 18-24 hrs.
On Day 2, the transfected cells were trypsinized and seeded into white 96 well plates (Costar #3917) in 100ul/well of growth medium at a concentration of 20,000 cells/well. The cells were allowed to recover for 4 hrs before adding serum starvation medium Dulbecco's Modified Eagle Medium (DMEM, Invitrogen #21063-029) supplemented with 2 mM L-glutamine, 0.1 units/ml penicillin and 0.1 ug/ml streptomycin, and 0.5% Calf Serum (CS, Invitrogen #26170-043). The growth media was aspirated off, and the cells were rinsed with 100 ul of starvation media. 95 ul of starvation media was then added to each well. The cells were incubated for 20 hrs at 37 °C, 5% C02.
On Day 3, cells were dosed with test compounds at a final concentration ranging from 2 uM to 2 nM. Immediately after dosing cells with compounds, recombinant human sonic hedgehog (SHh, R&D Systems #1845-SH) was add to a final concentration of 250 ng/ml. A 25 ug vial of SHh was reconstituted with 250 ul PBS/0.1% BSA to give a 100 ng/ul working stock. This working stock was then diluted 1:20 in starvation media. The transfected cells were incubated with compounds and SHh for 20 hrs at 37 °C, 5% C02.
Luciferase assays were conducted on Day 4 using Dual-Glo Luciferase assay system (Promega #E2940) according to Promega's protocol. Briefly, Dual-Glo luciferase reagent was made up and 100 uls were added to each well of the 96 well plate containing media. Plates were shaken at room temperature for 10 minutes, and then read on TopCount (Perkin-Elmer). The luminescence was recorded.

T1 sequence (P56726 33-793): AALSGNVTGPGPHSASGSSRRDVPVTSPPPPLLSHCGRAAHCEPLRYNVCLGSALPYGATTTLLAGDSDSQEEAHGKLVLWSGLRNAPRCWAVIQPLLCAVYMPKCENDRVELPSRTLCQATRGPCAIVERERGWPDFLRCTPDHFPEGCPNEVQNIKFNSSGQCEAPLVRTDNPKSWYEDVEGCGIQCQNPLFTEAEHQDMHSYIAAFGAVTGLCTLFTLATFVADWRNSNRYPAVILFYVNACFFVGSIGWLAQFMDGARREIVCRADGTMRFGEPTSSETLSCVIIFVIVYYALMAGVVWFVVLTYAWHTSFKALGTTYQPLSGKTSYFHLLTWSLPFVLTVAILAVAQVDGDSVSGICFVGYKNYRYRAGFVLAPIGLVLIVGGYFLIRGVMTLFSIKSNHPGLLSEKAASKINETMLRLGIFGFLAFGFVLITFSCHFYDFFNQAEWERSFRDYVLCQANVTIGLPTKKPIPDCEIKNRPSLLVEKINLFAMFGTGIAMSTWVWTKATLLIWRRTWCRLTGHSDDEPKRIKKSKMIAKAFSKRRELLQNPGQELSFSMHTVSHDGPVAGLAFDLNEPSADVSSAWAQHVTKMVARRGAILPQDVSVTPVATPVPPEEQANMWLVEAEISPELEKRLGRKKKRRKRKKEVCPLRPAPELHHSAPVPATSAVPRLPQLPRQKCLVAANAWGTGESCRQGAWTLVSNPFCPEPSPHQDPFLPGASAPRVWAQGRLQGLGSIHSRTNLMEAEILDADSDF

SMO % inhibition at 2 uM | Compound
81% | N-(3-(6-Isopropyl-1-methyl-1H-benzo[d]imidazol-2-yl)cyclohexyl)-2,3-dihydrobenzo[b][1,4]dioxine-6-carboxamide and N-(3-(5-isopropyl-1-methyl-1H-benzo[d]imidazol-2-yl)cyclohexyl)-2,3-dihydrobenzo[b][1,4]dioxine-6-carboxamide [Example 32]

same assay, conditions: C3H 10T1/2, 2 uM test compound, SHh 250 ng/ml, 20 hrs, read-out: SMO % inhibition at 2 uM

inhibition at 2 µM | Compound
87% | COCCNc1ccc(C(=O)N[C@@H]2CCC[C@H](c3nc4ccccc4[nH]3)C2)cn1 [Example 41, N-((1R,3S)-3-(1H-Benzo-[d]imidazol-2-yl)cyclohexyl)-6-(2-methoxyethylamino)nicotinamide]
95% | CN(C(=O)c1ccc2c(c1)OCCO2)C1CCCC(c2nc3ccccc3n2C)C1 (centres unmarked) [Example 14, N-Methyl-N-(3-(1-methyl-1H-benzo[d]imidazol-2-yl)cyclohexyl)-2,3-dihydrobenzo[b][1,4]dioxine-6-carboxamide]
87% | COc1cc(OC)cc(C(=O)NC2CCCC(c3nc4cc(NC(C)=O)ccc4[nH]3)C2)c1 (centres unmarked) [Example 9, N-(3-(5-Acetamido-1H-benzo[d]imidazol-2-yl)cyclohexyl)-3,5-dimethoxybenzamide]

same assay, conditions: C3H 10T1/2, 2 μM test compound, SHh 250 ng/ml, 20 hrs, read-out: SMO CELL % INHIBITION @ 2 μM

inhibition at 2 µM | Compound
104% | O=C(N[C@@H]1CCC[C@H](c2nc3cc(C(F)(F)F)ccc3[nH]2)C1)c1ccc2c(c1)CN(CC1CC1)CC2 [Example 290, 2-(cyclopropyl-methyl)-N-{(1R,3S)-3-[5-(trifluoromethyl)-1H-benzimidazol-2-yl]cyclohexyl}-1,2,3,4-tetrahydroisoquino-line-7-carboxamide HCl]
68% | O=C(NC1CCCC(c2nc3ccccc3[nH]2)C1)c1ccc(O)c(Cl)c1 (centres unmarked) [Example 147, N-[3-(1H-benzimidazol-2-yl)cyclohexyl]-3-chloro-4-hydroxybenz-amide triflouroacetate]
105% | O=C(NC12CCCC(c3nc4cc(C(F)(F)F)ccc4[nH]3)(C1)C2)c1ccc(C(=O)C(F)(F)F)cc1 [Example 274, 4-(trifluoroacetyl)-N-{5-[5-(trifluoromethyl)-1H-benzimidazol-2-yl]bicyclo[3.1.1]hept-1-yl}benzamide]
64% | CCc1n[nH]c(C(=O)NC2CCCC(c3nc4ccccc4[nH]3)C2)c1C (centres unmarked) [Example 155, N-[3-(1H-benzimidazol-2-yl)cyclohexyl]-3-ethyl-4-methyl-1H-pyrazol-5-carboxamide triflouroacetate]
103% | O=C(N[C@@H]1CCC[C@H](c2nc3ccccc3[nH]2)C1)c1ccc2c(c1)CCCO2 [Example 265, N-[(1R,3S)-3-(1H-benzimidazol-2-yl)cyclohexyl] chromane-6-carboxamide]
96% | CN1c2ccccc2OCC1CC(=O)NC1CCCC(c2nc3ccccc3[nH]2)C1 (centres unmarked) [Example 94, N-[3-(1H-benzimidazol-2-yl)cyclohexyl]-2-(4-methyl-3,4-dihydro-2H-1,4-benzoxazin-3-yl)acetamide triflouroacetate]
32% | O=C(N[C@@H]1CCC[C@H](c2nc3ccccc3[nH]2)C1)c1cc2ccc(F)cc2[nH]1 [Example 209, N-[(1R,3S)-3-(1H-benzimidazol-2-yl)cyclohexyl]-6-fluoro-1H-indole-2-carboxamide triflouroacetate]
100% | Cn1c([C@H]2CCC[C@@H](NC(=O)c3ccc4c(c3)CCNC4)C2)nc2ccccc21 [Example 311, N-[(1R,3S)-3-(1-methyl-1H-benzimidazol-2-yl)cyclohexyl]-1,2,3,4-tetrahydroiso-quinoline-6-carboxamide HCl]
66% | Cn1c(C23CCCC(NC(=O)c4ccc5c(c4)OCCO5)(C2)C3)nc2ccccc21 [Example 244, N-(5-(1-methyl-1H-benzo[d]imidaz-ol-2-yl)bicyclo[3.1.1]heptan-1-yl)-2,3-dihydrobenzo[b] [1,4]dioxine-6-carboxamide]
78% | Cn1ccnc1-c1ccc(C(=O)NC2CCCC(c3nc4ccccc4[nH]3)C2)cc1 (centres unmarked) [Example 159, N-[3-(1H-benzimidazol-2-yl)cyclohexyl]-4-(1-methyl-1H-imidazol-2-yl)benzamide triflouroacetate]
105% | O=C(N[C@@H]1CCC[C@H](c2nc3ccc(C(F)(F)F)cc3[nH]2)C1)c1ccc2c(c1)OCCO2 [Example 223, N-((1R,3S)-3-[6-(trifluoromethyl)-1H-benzimidazol-2-yl]cyclohexyl]-2,3-dihydro-1,4-benzodioxine-6-carboxamide HCl]
63% | COc1cc(C(=O)N[C@@H]2CCC[C@H](c3nc4ccccc4[nH]3)C2)ccn1 [Example 165, N-[(1R,3S)-3-(1H-benzimidazol-2-yl)cyclohexyl]-2-methoxyisonico-tinamide HCl]
110% | O=C(NC1CCCC(c2nc3ccccc3[nH]2)C1)c1ccc2cc[nH]c2c1 (centres unmarked) [Example 140, N-[3-(1H-benzimidazol-2-yl)cyclohexyl]-1H-indole-6-carboxamide HCl]
57% | CC(C)(C)C(=O)NC1CCCC(c2nc3ccccc3[nH]2)C1 (centres unmarked) [Example 55, N-[3-(1H-benzimidazol-2-yl)cyclohexyl]-2,2-dimethylpropan-amide HCl]
106% | Cn1cc(CC(=O)NC2CCCC(c3nc4ccccc4[nH]3)C2)c2ccccc21 (centres unmarked) [Example 115, N-[3-(1H-benzimidazol-2-yl)cyclohexyl]-2-(1-methyl-1H-indol-3-yl)acetamide triflouroacetate]
107% | Cn1c([C@H]2CCC[C@@H](NC(=O)c3ccc4c(c3)OCCO4)C2)nc2ccccc21 [Example 66, N-[(1R,3S)-3-(1-methyl-1H-benzimidazol-2-yl)cyclohexyl]-2,3-dihydro-1,4-benzodioxine-6-carboxamide HCl]
48% | Cc1noc(C)c1NC(=O)N[C@@H]1CCC[C@H](c2nc3ccccc3[nH]2)C1 [Example 233, 1-((1R,3S)-3-(1H-benzo[d]imidaz-ol-2-yl)cyclohexyl)-3-(3,5-dimethylisoxaz-ol-4-yl)urea]
103% | O=C(CN1C(=O)COc2cccnc21)NC1CCCC(c2nc3ccccc3[nH]2)C1 (centres unmarked) [Example 105, N-[3-(1H-benzimidazol-2-yl)cyclohexyl]-2-(3-oxo-2,3-dihydro-4H-pyrido[3,2-b][1,4]oxazin-4-yl)acetamide triflouroacetate]
64% | Cn1cncc1C(=O)N[C@@H]1CCC[C@H](c2nc3ccccc3[nH]2)C1 [Example 174, N-[(1R,3S)-3-(1H-benzimidazol-2-yl)cyclohexyl]-1-methyl-1H-imidazole-5-carboxamide HCl]
99.9% | O=C(NC12CCCC(c3nc4ccccc4[nH]3)(C1)C2)c1ccc(C(=O)c2ccccc2)cc1 [Example 278, N-[5-(1H-benzimidazol-2-yl)bicyclo[3.1.1]hept-1-yl]-4-benzoylbenz-amide]
56% | O=C(NC1CCCC(c2nc3ccccc3[nH]2)C1)c1n[nH]c2ccccc12 (centres unmarked) [Example 101, N-[3-(1H-benzimidazol-2-yl)cyclohexyl]-1H-indazole-3-carboxamide triflouroacetate]

Compound | inhibition at 2 µM
O=C(N[C@H]1CCC[C@@H](c2nc3ccccc3[nH]2)C1)c1ccc2c(c1)OCCO2 [Example 72, N-((1S,3R)-3-(1H-benzo[d]imidazol-2-yl)cyclohexyl)-2,3-dihydrobenzo[b] [1,4]dioxine-6-carboxamide HCl] | 96%
